From PMC2678901 (Drug metabolism and disposition: the biological fate of …, 2008)

System: CYP3A
Details: 5 μM inhibitor; liver microsomes of RIF-pretreated TgCYP3A4/hPXR mice; 50 μM MDZ

CC(=O)N1CCN(c2ccc(OCC3COC(Cn4ccnc4)(c4ccc(Cl)cc4Cl)O3)cc2)CC1 (stereo not shown) [ketoconazole] was tested, and the “Inhibition of CYP3A activity” value was “markedly inhibited”.
